Assay results reported in patent publication US9051326B2, “Pyrazoline derivatives and their use as selective androgen receptor modulators” (NOVARTIS AG, priority 2011, dated 2015).

target: T1, androgen receptor (AR) (Homo sapiens, UniProt P10275); assay: AR transcriptional activation luciferase reporter assay in C2C12 cells (Test 1); type: cell-based; conditions: not given
T1 construct: transfecting C2C12 cells with a plasmid containing full-length AR along with an AR response element linked to luciferase; expressed in transfected cells; host or cells: mouse myoblastic C2C12 cells (ATCC CRL-1772), transient transfection with Lipofectamine 2000
T1 sequence (P10275 1-920): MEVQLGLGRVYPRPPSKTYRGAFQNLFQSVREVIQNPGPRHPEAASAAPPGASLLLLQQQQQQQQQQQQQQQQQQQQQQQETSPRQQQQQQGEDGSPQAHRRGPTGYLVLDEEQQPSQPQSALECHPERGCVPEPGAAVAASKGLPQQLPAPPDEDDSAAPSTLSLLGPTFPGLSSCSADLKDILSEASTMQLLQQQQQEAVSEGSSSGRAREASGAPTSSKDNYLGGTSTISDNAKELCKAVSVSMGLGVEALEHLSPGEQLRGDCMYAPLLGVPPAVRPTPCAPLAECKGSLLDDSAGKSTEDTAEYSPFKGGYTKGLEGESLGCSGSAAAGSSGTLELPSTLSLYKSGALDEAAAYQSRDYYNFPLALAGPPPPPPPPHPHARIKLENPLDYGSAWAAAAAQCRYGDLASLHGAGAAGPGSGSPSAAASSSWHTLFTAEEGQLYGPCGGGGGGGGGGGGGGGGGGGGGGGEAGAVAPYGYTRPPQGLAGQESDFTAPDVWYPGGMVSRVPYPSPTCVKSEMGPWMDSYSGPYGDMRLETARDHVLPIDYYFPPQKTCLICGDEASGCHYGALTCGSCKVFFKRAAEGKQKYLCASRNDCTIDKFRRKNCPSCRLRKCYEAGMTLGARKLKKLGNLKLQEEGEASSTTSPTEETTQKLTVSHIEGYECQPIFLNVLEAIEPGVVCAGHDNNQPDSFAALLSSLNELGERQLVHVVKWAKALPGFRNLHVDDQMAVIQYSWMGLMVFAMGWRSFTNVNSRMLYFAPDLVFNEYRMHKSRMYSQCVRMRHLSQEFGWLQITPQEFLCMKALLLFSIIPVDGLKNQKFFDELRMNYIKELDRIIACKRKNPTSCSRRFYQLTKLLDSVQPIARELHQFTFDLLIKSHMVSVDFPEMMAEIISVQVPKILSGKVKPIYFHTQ
Description: A suitable assay to determine the ability of a ligand to transcriptionally activate androgen receptor (AR) is carried out using mouse myoblastic C2C12 cells. The assay involves transfecting C2C12 cells with a plasmid containing full-length AR along with an AR response element linked to luciferase (2XIDR17). The luminescence read-out at the end of the assay is measured using Victor 3 and is a direct measure of the transcriptional activity. The assay has been validated using the reference compound, BMS-564929, for which EC50 values have been reported in a similar set-up. Other tool compounds that have been used for assay validation are GSK-420A, Andarine, putative Ostarine, and LGD-2226.
C2C12 cells were obtained from ATCC (Cat # CRL-1772) and maintained in DMEM modified to contain 4 mM L-glutamine, 4.5 g/L glucose, 1 mM sodium pyruvate and 1.5 g/L sodium bicarbonate and 10% FBS.
AR-FL in pcDNA 3.1(+) and 2XIDR17 in pGL4.26 plasmids prepared using Genelute plasmid miniprep kit from Sigma Cat # PLED35
• C2C12 cells were seeded in a 96-well plate in DMEM (Dulbecco's Modified Eagle Medium) without phenol red and containing 10% CS-FBS (Charcoal-stripped Fetal Bovine Serum) at 8000 cells/well. • The next day, cells were transfected with an equimolar ratio of (Androgen Receptor-Full length) AR-FL and 2XIDR17-Luciferase at a total plasmid concentration of 200 ng/well using Lipofectamine 2000 following manufacturer's protocol. • For the transfection, 83 ng of AR-FL and 117 ng of 2XIDR17-Luciferase were in 12.5 μl of OptiMEM—Mix A. 0.4 μl of Lipofectamine 2000 was added to 12.5 μl of OptiMEM and incubated for 5 min at room temperature—Mix B. The two mixes A and B were mixed and incubated at room temperature for an additional fifteen minutes. An additional 50 μl of OptiMEM was added, gently mixed and this mixture was added to the cells in the 96-well plate. The above quantities are requirements per well of a 96-well plate. Master mixes were made for the entire plate, with proportional quantity of reagents being used. • 5 h after transfection, compounds were added to the wells in DMEM without phenol red and containing 10% CS-FBS, maintaining a final DMSO concentration of 0.5%. A typical dose response curve starts at 10 μM and includes a 7-point, log dilution, done in triplicates. • After overnight incubation with the compounds, 100 ul of working solution of Steadyglow reagent was added to the wells. • The plates were placed in a shaker for 15 min at the end of which the lysate containing luciferase was transferred to a white flat-bottom plate and read under a luminescence setting in Victor. • Background subtracted counts (Luminescence from DMSO control wells is considered the background) are used to calculate percentage activity, expressed relative to activity with 1 μM (Dihydrotestosterone) DHT (at least two sets of triplicates for 1 μM DHT are included per plate). Data Fitting: • The EC50 curves for the compounds for 8 compound concentrations were fitted by the respective function using non-linear least-squares regression in Graphpad Prism 4.0 (Graphpad Software, San Diego, Calif., USA).

`CO[C@@H]1C(c2ccc(C#N)c(Cl)c2C)=NN2CC[C@@H](O)[C@@H]12` [Example 2, 2-chloro-4-((3S,3aS,4R)-4-hydroxy-3-methoxy-3a,4,5,6-tetrahydro-3H-pyrrolo[1,2-b]pyrazol-2-yl)-3-methylbenzonitrile] and `CCO[C@@H]1C(c2ccc(C#N)c(Cl)c2C)=NN2CC[C@@H](O)[C@@H]12` [Example 6, 2-chloro-4-((3S,3aS,4R)-3-ethoxy-4-hydroxy-3a,4,5,6-tetrahydro-3H-pyrrolo[1,2-b]pyrazol-2-yl)-3-methylbenzonitrile] are the same in EC50: 0.6 nM for the first, 0.6 nM for the second.

First: Cc1c(C2=NN3CC[C@H](O)[C@H]3[C@@H]2O)ccc(C#N)c1Cl [Example 3, 2-chloro-4-((3S,3aS,4S)-3,4-dihydroxy-3a,4,5,6-tetrahydro-3H-pyrrolo[1,2-b]pyrazol-2-yl)-3-methylbenzonitrile]
Second: Cc1c(C2=NN3CC[C@H](O)[C@H]3[C@@H]2OC(C)C)ccc(C#N)c1Cl [Example 7, 2-chloro-4-((3S,3aS,4S)-4-hydroxy-3-isopropoxy-3a,4,5,6-tetrahydro-3H-pyrrolo[1,2-b]pyrazol-2-yl)-3-methylbenzonitrile]
The EC50 of the first is 210-fold higher: 821 nM for the first, 4 nM for the second. The second is the more potent here.

First: CO[C@@H]1C(c2ccc(C#N)c(Cl)c2C)=NN2C[C@H](O)C[C@@H]12 [Example 8, 2-chloro-4-((3S,3aS,5R)-5-hydroxy-3-methoxy-3a,4,5,6-tetrahydro-3H-pyrrolo[1,2-b]pyrazol-2-yl)-3-methylbenzonitrile]
Second: CO[C@@H]1C(c2ccc(C#N)c(Cl)c2C)=NN2C[C@@H](F)C[C@@H]12 [Example 14, 2-chloro-4-((3S,3aS,5S)-5-fluoro-3-methoxy-3a,4,5,6-tetrahydro-3H-pyrrolo[1,2-b]pyrazol-2-yl)-3-methylbenzonitrile]
The EC50 of the first is 3.9-fold higher: 6.7 nM for the first, 1.7 nM for the second. The second is the more potent here.

Compared with `CO[C@@H]1C(c2ccc(C#N)c(Cl)c2C)=NN2CC(=O)C[C@@H]12` [Example 9, 2-chloro-4-((3S,3aS)-3-methoxy-5-oxo-3a,4,5,6-tetrahydro-3H-pyrrolo[1,2-b]pyrazol-2-yl)-3-methylbenzonitrile], `CO[C@@H]1C(c2ccc(C#N)c(Cl)c2C)=NN2C[C@@H](I)C[C@@H]12` [Example 19, 2-chloro-4-((3S,3aS,5S)-5-iodo-3-methoxy-3a,4,5,6-tetrahydro-3H-pyrrolo[1,2-b]pyrazol-2-yl)-3-methylbenzonitrile] is 1.5-fold lower in EC50: 10.5 nM for the first, 7 nM for the second.

First: CO[C@@H]1C(c2ccc(C#N)c(Cl)c2C)=NN2CC[C@@H](F)[C@@H]12 [Example 12, 2-chloro-4-((3S,3aR,4R)-4-fluoro-3-methoxy-3a,4,5,6-tetrahydro-3H-pyrrolo[1,2-b]pyrazol-2-yl)-3-methylbenzonitrile]
Second: CO[C@@H]1C(c2ccc(C#N)c(Cl)c2C)=NN2CC[C@H](F)[C@@H]12 [Example 13, 2-chloro-4-((3S,3aR,4S)-4-fluoro-3-methoxy-3a,4,5,6-tetrahydro-3H-pyrrolo[1,2-b]pyrazol-2-yl)-3-methylbenzonitrile]
The EC50 of the first is 13-fold lower: 0.1 nM for the first, 1.3 nM for the second.

Going from `CO[C@@H]1C(c2ccc(C#N)c(Cl)c2C)=NN2CC(F)(F)C[C@@H]12` [Example 15, 2-chloro-4-((3S,3aS)-5,5-difluoro-3-methoxy-3a,4,5,6-tetrahydro-3H-pyrrolo[1,2-b]pyrazol-2-yl)-3-methylbenzonitrile] to `Cc1c(C2=NN3CC[C@H](O)[C@H]3[C@@H]2OCCF)ccc(C#N)c1Cl` [Example 16, 2-chloro-4-((3S,3aS,4S)-3-(2-fluoroethoxy)-4-hydroxy-3a,4,5,6-tetrahydro-3H-pyrrolo[1,2-b]pyrazol-2-yl)-3-methylbenzonitrile], the EC50 rises from 0.1 nM to 2 nM (20-fold). The first is the more potent here.

For `COCCO[C@@H]1C(c2ccc(C#N)c(Cl)c2C)=NN2CC[C@@H](F)[C@@H]12` [Example 22, 2-chloro-4-((3S,3aR,4R)-4-fluoro-3-(2-methoxyethoxy)-3a,4,5,6-tetrahydro-3H-pyrrolo[1,2-b]pyrazol-2-yl)-3-methylbenzonitrile], the EC50 was 0.98 nM.

same assay, conditions: 100 nM compound; activity relative to 1 μM DHT

Compared with `Cc1c(C2=NN3CC[C@@H](O)[C@H]3[C@@H]2O)ccc(C#N)c1Cl` [Example 4, 2-chloro-4-((3S,3aS,4R)-3,4-dihydroxy-3a,4,5,6-tetrahydro-3H-pyrrolo[1,2-b]pyrazol-2-yl)-3-methylbenzonitrile], `Cc1c(C2=NN3C[C@H](O)C[C@H]3[C@@H]2O)ccc(C#N)c1Cl` [Example 10, 2-chloro-4-((3S,3aS,5R)-3,5-dihydroxy-3a,4,5,6-tetrahydro-3H-pyrrolo[1,2-b]pyrazol-2-yl)-3-methylbenzonitrile] is lower in “% Biological activity (C2C12 cell) 100 nM” value: 5% for the first, 4% for the second.

Compared with `CO[C@@H]1C(c2ccc(C#N)c(Cl)c2C)=NN2CC(O)(C(F)(F)F)C[C@@H]12` (stereo partly drawn) [Example 11, 2-chloro-4-((3S,3aS)-5-hydroxy-3-methoxy-5-(trifluoromethyl)-3a,4,5,6-tetrahydro-3H-pyrrolo[1,2-b]pyrazol-2-yl)-3-methylbenzonitrile], `Cc1c(C2=NN3CC[C@H](O)[C@H]3[C@@H]2OCC2CC2)ccc(C#N)c1Cl` [Example 17, 2-chloro-4-((3S,3aS,4S)-3-(cyclopropylmethoxy)-4-hydroxy-3a,4,5,6-tetrahydro-3H-pyrrolo[1,2-b]pyrazol-2-yl)-3-methylbenzonitrile] is higher in “% Biological activity (C2C12 cell) 100 nM” value: 24% for the first, 91% for the second.

same assay, conditions: 5 μM compound; activity relative to 1 μM DHT

Going from `Cc1c(C2=NN3CC[C@@H](O)[C@H]3[C@@H]2O)ccc(C#N)c1Cl` [Example 4, 2-chloro-4-((3S,3aS,4R)-3,4-dihydroxy-3a,4,5,6-tetrahydro-3H-pyrrolo[1,2-b]pyrazol-2-yl)-3-methylbenzonitrile] to `Cc1c(C2=NN3C[C@H](O)C[C@H]3[C@@H]2O)ccc(C#N)c1Cl` [Example 10, 2-chloro-4-((3S,3aS,5R)-3,5-dihydroxy-3a,4,5,6-tetrahydro-3H-pyrrolo[1,2-b]pyrazol-2-yl)-3-methylbenzonitrile], the “% Biological activity (C2C12 cell) 5 μM” value falls from 32% to 2%.

Compared with `CO[C@@H]1C(c2ccc(C#N)c(Cl)c2C)=NN2CC(O)(C(F)(F)F)C[C@@H]12` (stereo partly drawn) [Example 11, 2-chloro-4-((3S,3aS)-5-hydroxy-3-methoxy-5-(trifluoromethyl)-3a,4,5,6-tetrahydro-3H-pyrrolo[1,2-b]pyrazol-2-yl)-3-methylbenzonitrile], `Cc1c(C2=NN3CC[C@H](O)[C@H]3[C@@H]2OCC2CC2)ccc(C#N)c1Cl` [Example 17, 2-chloro-4-((3S,3aS,4S)-3-(cyclopropylmethoxy)-4-hydroxy-3a,4,5,6-tetrahydro-3H-pyrrolo[1,2-b]pyrazol-2-yl)-3-methylbenzonitrile] is higher in “% Biological activity (C2C12 cell) 5 μM” value: 33% for the first, 100% for the second.

same assay, conditions: 5 μM compound; symbol defined in table footnote

`CO[C@@H]1C(c2ccc(C#N)c(Cl)c2C)=NN2C[C@@H](O)C[C@@H]12` [Example 18, 2-chloro-4-((3S,3aS,5S)-5-hydroxy-3-methoxy-3a,4,5,6-tetrahydro-3H-pyrrolo[1,2-b]pyrazol-2-yl)-3-methylbenzonitrile] was tested, and the “activity at 5 μM concentration (C2C12 cell)” value was “** (at 5 μM concentration, <10% activity)”.

same assay, conditions: mouse myoblastic C2C12 cells transfected with AR-FL and 2XIDR17-luciferase; read-out: Biological activity (C2C12 cell) EC50

First: CO[C@H]1CCN2N=C(c3ccc(C#N)c(Cl)c3C)[C@@H](OC)[C@H]12 [Example 20, 2-chloro-4-((3S,3aS,4S)-3,4-dimethoxy-3a,4,5,6-tetrahydro-3H-pyrrolo[1,2-b]pyrazol-2-yl)-3-methylbenzonitrile]
Second: COCCO[C@@H]1C(c2ccc(C#N)c(Cl)c2C)=NN2CC[C@H](O)[C@@H]12 [Example 21, 2-chloro-4-((3S,3aS,4S)-4-hydroxy-3-(2-methoxyethoxy)-3a,4,5,6-tetrahydro-3H-pyrrolo[1,2-b]pyrazol-2-yl)-3-methylbenzonitrile]
The EC50 of the first is 7.6-fold higher: 7.1 nM for the first, 0.93 nM for the second. The second is the more potent here.
